From paper PMC9921301, “Design, Synthesis, and Antiproliferative Activity of New 5-Chloro-indole-2-carboxylate and Pyrrolo[3,4-b]indol-3-one Derivatives as Potent Inhibitors of EGFR^T790M/BRAF^V600E Pathways” (Molecules, 2023)
Like-named read-outs stand apart in the source and are kept apart here.

How the values were obtained:
[1] = Cell viability assay (MTT) on normal mammary epithelial cells; assay type: cell-based; settings: human, MCF-10A normal mammary gland epithelial cells, four days of incubation
Procedure: The viability test was performed on a normal human mammary gland epithelial cell line (MCF-10A). The MTT test was used to assess the viability of compounds 3a–e, 4a–c, and 5a–c.
The MTT assay was used to determine how the synthesized compounds affected the viability of mammary epithelial cells (MCF-10A). See Appendix SA (Supplementary Materials). […]
4.2. Biological evaluation
4.2.1. Cytotoxic activity using MTT Assay and evaluation of IC50
MTT assay was performed to investigate the effect of the synthesized compounds on mammary epithelial cells (MCF-10A). The cells were propagated in medium consisting of Ham's F-12 medium/ Dulbecco's modified Eagle's medium (DMEM) (1:1) supplemented with 10% foetal calf serum, 2 mM glutamine, insulin (10 μg/mL), hydrocortisone (500 ng/mL) and epidermal growth factor (20 ng/mL). Trypsin ethylenediamine tetra acetic acid (EDTA) was used to passage the cells after every 2-3 days. 96-well flat-bottomed cell culture plates were used to seed the cells at a density of 10^4 cells mL-1. The medium was aspirated from all the wells of culture plates after 24 h followed by the addition of synthesized compounds (in 200 μL medium to yield a final concentration of 0.1% (v/v) dimethylsulfoxide) into individual wells of the plates.
Four wells were designated to a single compound. The plates were allowed to incubate at 37°C for 96 h. Afterwards, the medium was aspirated and 3-[4,5-dimethylthiazol-2-yl]-2,5-diphenyltetrazolium bromide (MTT) (0.4 mg/mL) in medium was added to each well and subsequently incubated for 3 h. The medium was aspirated and 150 μL dimethyl sulfoxide (DMSO) was added to each well. The plates were vortexed followed by the measurement of absorbance at 540 nm on a microplate reader. […]

[2] = system: A-549 (epithelial cancer cell line); test: Antiproliferative assay, A-549; assay type: cell-based; settings: Homo sapiens, A549; read-out: Antiproliferative Activity IC50 ± SEM A-549
Procedure: (§1) For ease of manipulation, the average (GI50) versus the four cancer cell lines was used.
(§2) To investigate the antiproliferative potential of 3a–e, 4a–c, and 5a–c, the MTT assay was carried out using various cell lines in accordance with previously reported procedures. See Appendix SA (Supplementary Materials). […]
(§3) ethylenediamine tetra acetic acid (EDTA) was used to passage the cells after every 2-3 days. 96-well flat-bottomed cell culture plates were used to seed the cells at a density of 10^4 cells mL-1. The medium was aspirated from all the wells of culture plates after 24 h followed by the addition of synthesized compounds (in 200 μL medium to yield a final concentration of 0.1% (v/v) dimethylsulfoxide) into individual wells of the plates.
(§4) Four wells were designated to a single compound. The plates were allowed to incubate at 37°C for 96 h. Afterwards, the medium was aspirated and 3-[4,5-dimethylthiazol-2-yl]-2,5-diphenyltetrazolium bromide (MTT) (0.4 mg/mL) in medium was added to each well and subsequently incubated for 3 h. The medium was aspirated and 150 μL dimethyl sulfoxide (DMSO) was added to each well. The plates were vortexed followed by the measurement of absorbance at 540 nm on a microplate reader. The results were presented as inhibition (%) of proliferation in contrast to controls comprising 0.1% 4.2.1.2. Assay for antiproliferative effect
(§5) To explore the antiproliferative potential of compounds propidium iodide fluorescence assay was performed using different cell lines such as Panc-1 (pancreas cancer cell […]
(§6) (epithelial cancer cell line), respectively. To calculate the total nuclear DNA, a fluorescent dye (propidium iodide, PI) is used which can attach to the DNA, thus offering a quick and precise technique. PI cannot pass through the cell membrane and its signal intensity can be considered as directly proportional to quantity of cellular
(§7) DNA. Cells whose cell membranes are damaged or have changed permeability are counted as dead ones. The assay was performed by seeding the cells of different cell lines at a density of 3000-7500 cells/well (in200μl medium) in culture plates followed […]
(§8) The medium was removed; the compounds were added to the plates at 10 μM concentrations (in 0.1% DMSO) in triplicates, followed by incubation for 48h. DMSO (0.1%) was used as control. After incubation, medium was removed followed by the addition of PI (25 μl, 50μg/mL in water/medium) to each well of the plates. At -80 °C, the plates were allowed to freeze for 24 h, followed by thawing at 25 °C. A fluorometer (Polar-Star BMG Tech) was used to record the readings at excitation and emission wavelengths of 530 and 620 nm for each well. The percentage cytotoxicity of compounds was calculated using the following formula:
(§9) Where ATC= Absorbance of treated cells and AC= Absorbance of control. […]
(§10) was used as positive control in the assay. […]

[3] = system: MCF-7 (breast cancer cell line); test: Antiproliferative assay, MCF-7; assay type: cell-based; settings: Homo sapiens, MCF7; read-out: Antiproliferative Activity IC50 ± SEM MCF-7
Procedure: as §1, §2, §3, §4, §5, §6, §7, §8, §9, §10

[4] = system: Panc-1 (pancreatic cancer cell line); test: Antiproliferative assay, Panc-1; assay type: cell-based; settings: Homo sapiens, read-out: Antiproliferative Activity IC50 ± SEM Panc-1
Procedure: as §1, §2, §3, §4, §5, §6, §7, §8, §9, §10

[5] = system: HT-29 (colon cancer cell line); test: Antiproliferative assay, HT-29; assay type: cell-based; settings: Homo sapiens, read-out: Antiproliferative Activity IC50 ± SEM HT-29
Procedure: as §1, §2, §3, §4, §5, §6, §7, §8, §9, §10

[6] = system: four human cancer cell lines (Panc-1, MCF-7, HT-29, A-549); test: Antiproliferative assay, average (GI50) versus the four cancer cell lines; assay type: cell-based; settings: for GI50: Homo sapiens, average versus the four cancer cell lines; for fold less potent than 3e (GI50): relative to 3e GI50 29 nM
Procedure: as §1, §2, §3, §4, §5, §6, §7, §8, §9, §10

BRAF^V600E [7] = target: T1, BRAF^V600E (Mus musculus, UniProt P28028, V585E); test: V600E mutant BRAF kinase assay; assay type: biochemical; settings: for IC50: read-out: BRAF^V600E Inhibition IC50 ± SEM
T1 construct: Mouse full-length GST-tagged; GST; purchased Invitrogen PV3849
Procedure: V600E mutant BRAF kinase assay was performed to investigate the activity of […]
Mouse full-length GST-tagged
BRAFV600E (7.5 ng, Invitrogen, PV3849) was pre -incubated with drug (1 µL) and assay dilution buffer (4 µL) for 6 0 min at 25 °C. In assay dilution buffer, a solution (5 µL) containing MgCl2 (30 mM), ATP (200 µM), recombinant human full length (200 ng) […] N-terminal His-tagged MEK1 (Invitrogen) was added to start the assay, after incubation for 25 min at 25 °C. The assay was stopped using 5X protein denaturing buffer (LDS) solution (5 µL). To further denature the protein, heat (70° C) was applied […]
electrophoresis (at 200 V). 10 µL of each reaction was loaded into the precast plates and electrophoresis was allowed to proceed. After completion of electrophoresis, the front part of the precast gel plate (holding hot ATP) was cut and afterwards cast -off.
The dried gel was developed using a phosphor screen. […]
Computerized Prism 5 program was used to statistically analyzed data using one-way ANOVA test followed by Tukey’s as post ANOVA for multiple comparison at P ≤.05.
Data were presented as mean ± SEM.

EGFR [8] = target: T2, EGFR (Homo sapiens, UniProt P00533); test: EGFR-TK inhibitory assay
EGFR [9] = target: T2, EGFR; set-up: CD, amino acids 645–1186); His6 (N); made in house; host or cells: Sf-9 insect cells (baculovirus; pBlueBacHis2B / pFASTBacHTc; settings: cited from earlier work
BRAF^V600E [10] = settings: cited from earlier work

T2 sequence (P00533 669-1210): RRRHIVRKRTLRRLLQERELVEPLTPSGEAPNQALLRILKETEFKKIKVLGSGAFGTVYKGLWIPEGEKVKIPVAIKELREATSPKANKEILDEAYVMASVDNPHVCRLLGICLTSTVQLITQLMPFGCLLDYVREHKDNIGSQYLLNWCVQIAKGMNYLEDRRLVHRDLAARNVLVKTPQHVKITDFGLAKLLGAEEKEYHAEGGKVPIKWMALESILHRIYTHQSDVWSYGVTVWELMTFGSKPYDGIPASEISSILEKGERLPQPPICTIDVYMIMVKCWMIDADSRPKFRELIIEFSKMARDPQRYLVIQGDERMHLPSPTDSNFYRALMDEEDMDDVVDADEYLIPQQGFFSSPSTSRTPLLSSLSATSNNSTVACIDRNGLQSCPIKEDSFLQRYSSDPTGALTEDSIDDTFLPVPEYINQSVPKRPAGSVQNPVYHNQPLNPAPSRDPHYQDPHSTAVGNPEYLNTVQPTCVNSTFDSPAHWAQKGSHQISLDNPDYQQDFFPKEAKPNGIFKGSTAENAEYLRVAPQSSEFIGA
T1 sequence (P28028 whole entry V585E): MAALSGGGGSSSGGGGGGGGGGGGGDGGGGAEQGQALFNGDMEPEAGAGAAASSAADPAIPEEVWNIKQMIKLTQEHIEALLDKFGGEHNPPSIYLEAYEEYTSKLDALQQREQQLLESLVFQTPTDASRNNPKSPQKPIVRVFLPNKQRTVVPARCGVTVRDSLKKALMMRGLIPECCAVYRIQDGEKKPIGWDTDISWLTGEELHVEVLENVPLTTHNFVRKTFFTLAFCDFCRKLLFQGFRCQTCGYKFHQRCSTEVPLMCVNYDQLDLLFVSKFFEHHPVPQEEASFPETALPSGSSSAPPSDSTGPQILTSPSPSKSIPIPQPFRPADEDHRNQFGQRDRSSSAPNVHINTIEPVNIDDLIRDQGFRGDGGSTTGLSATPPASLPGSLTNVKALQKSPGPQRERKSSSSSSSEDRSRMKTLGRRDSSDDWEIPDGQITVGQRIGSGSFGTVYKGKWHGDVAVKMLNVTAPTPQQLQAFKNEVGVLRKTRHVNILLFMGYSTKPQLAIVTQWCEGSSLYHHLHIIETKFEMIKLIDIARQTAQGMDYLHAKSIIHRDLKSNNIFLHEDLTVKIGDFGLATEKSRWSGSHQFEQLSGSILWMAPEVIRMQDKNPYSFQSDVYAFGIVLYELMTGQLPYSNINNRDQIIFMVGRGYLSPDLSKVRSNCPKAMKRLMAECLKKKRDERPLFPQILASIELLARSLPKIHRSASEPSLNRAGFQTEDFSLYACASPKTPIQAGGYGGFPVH

IC50 [2] [nM] | IC50 [3] [nM] | IC50 [4] [nM] | IC50 [5] [nM] | GI50 [6] [nM] | IC50 (BRAF^V600E [7]) [nM] | fold less potent than vemurafenib (BRAF^V600E IC50) (BRAF^V600E [7]; relative to vemurafenib IC50 = 30 nM) [fold] | IC50 (EGFR [8]) [nM] | fold less potent than 3e (GI50) [6] [fold] | Structure (SMILES) | viability at 96 h, 50 µM [1] [%] | IC50 (EGFR [9]) [nM] | IC50 (BRAF^V600E [10]) [nM]
41 ± 4 | 45 ± 4 | 42 ± 4 | 44 ± 4 | 42 | 67 ± 6 | – | 89 ± 6 | 1.5 | CCOC(=O)c1[nH]c2ccc(Cl)cc2c1CNCCc1ccc(N2CCCCC2)cc1 [Compound 3c, Ethyl 5-chloro-3-((4-(piperidin-1-yl)phenethylamino)methyl)-1H-indole-2-carboxylate] | 89 | – | –
37 ± 3 | 40 ± 4 | 38 ± 3 | 38 ± 3 | 38 | 54 ± 5 | – | 82 ± 7 | 1.3 | CCOC(=O)c1[nH]c2ccc(Cl)cc2c1CNCCc1ccc(N2CCCC2C)cc1 (stereo not shown) [Compound 3d, Ethyl 5-chloro-3-((4-(2-methylpyrrolidin-1-yl)phenethylamino)methyl)-1H-indole-2-carboxylate] | 90 | – | –
65 ± 6 | 69 ± 6 | 68 ± 6 | 68 ± 6 | 68 | – | – | – | – | O=C(O)c1[nH]c2ccc(Cl)cc2c1CNCCc1ccc(N2CCCC2)cc1 [Compound 4b, 5-Chloro-3-((4-(pyrrolidin-1-yl)phenethylamino)methyl)-1H-indole-2-carboxylic acid] | 89 | – | –
69 ± 7 | 73 ± 7 | 72 ± 7 | 75 ± 7 | 72 | – | – | – | – | O=C(O)c1[nH]c2ccc(Cl)cc2c1CNCCc1ccc(N2CCCCC2)cc1 [Compound 4c, 5-Chloro-3-((4-(piperidin-1-yl)phenethylamino)methyl)-1H-indole-2-carboxylic acid] | 87 | – | –

More lines, now with the values behind:

Structure (SMILES) | IC50 [2] [nM] | IC50 [3] [nM] | IC50 [4] [nM] | IC50 [5] [nM] | GI50 [6] [nM] | IC50 (BRAF^V600E [7]) [nM] | fold less potent than vemurafenib (BRAF^V600E IC50) (BRAF^V600E [7]; relative to vemurafenib IC50 = 30 nM) [fold] | IC50 (EGFR [8]) [nM] | fold less potent than 3e (GI50) [6] [fold] | viability at 96 h, 50 µM [1] [%] | IC50 (EGFR [9]) [nM] | IC50 (BRAF^V600E [10]) [nM]
CCOC(=O)c1[nH]c2ccc(Cl)cc2c1CNCCc1ccccc1 [Compound 3a, Ethyl 5-chloro-3-((phenethylamino)methyl)-1H-indole-2-carboxylate] | 33 ± 3 | 35 ± 3 | 36 ± 3 | 36 ± 3 | 35 | 43 ± 4 | 1.4 | 85 ± 6 | – | 87 | – | –
O=C(O)c1[nH]c2ccc(Cl)cc2c1CNCCc1ccccc1 [Compound 4a, 5-Chloro-3-((phenethylamino)methyl)-1H-indole-2-carboxylic acid] | 75 ± 7 | 79 ± 7 | 78 ± 7 | 78 ± 7 | 78 | – | – | – | – | 91 | – | –
O=C1c2[nH]c3ccc(Cl)cc3c2CN1CCc1ccccc1 [Compound 5a, 7-Chloro-2-phenethyl-1,2-dihydropyrrolo [3,4-b]indol-3(4H)-one] | 46 ± 4 | 48 ± 5 | 50 ± 5 | 49 ± 5 | 48 | – | – | – | – | 89 | – | –
O=C1c2[nH]c3ccc(Cl)cc3c2CN1CCc1ccc(N2CCCC2)cc1 [Compound 5b, 7-Chloro-2-(4-(pyrrolidin-1-yl)phenethyl)-1,2-dihydropyrrolo [3,4-b]indol-3(4H)-one] | 58 ± 5 | 61 ± 6 | 64 ± 6 | 66 ± 6 | 62 | – | – | – | – | 89 | – | –
O=C1c2[nH]c3ccc(Cl)cc3c2CN1CCc1ccc(N2CCCCC2)cc1 [Compound 5c, 7-Chloro-2-(4-(piperidin-1-yl)phenethyl)-1,2-dihydropyrrolo [3,4-b]indol-3(4H)-one] | 51 ± 5 | 53 ± 5 | 55 ± 5 | 57 ± 5 | 54 | – | – | – | – | 91 | – | –
O=C(NCCc1ccc(N2CCOCC2)cc1)c1[nH]c2ccc(Cl)cc2c1CO [Compound IVc] | – | – | – | – | – | – | – | – | – | – | 120 | –
Cc1c2cc(Cl)ccc2n2cc(Cc3ccccc3)[nH]c(=O)c12 [Compound V] | – | – | – | – | – | – | – | – | – | – | – | 100
CCOCc1c2n(c3ccc(Cl)cc13)C(=O)CN(CCc1ccc(N3CCOCC3)cc1)C2=O [VII] | – | – | – | – | – | – | – | – | – | – | 32 | 45
